In patent US12616672B2, “Methods for assessing risk of cardiovascular disease and methods and compounds for use in treating or preventing cardiovascular disease” (Queen Mary University of London, priority 2017, dated 2026):
“And” between values parts separate entries of the source, which are not always exact repeats. Equal values may be shown once.

How the values were obtained:
platelet rich plasma = experiment: PRP incubations with RvD5n-3 DPA then PAF, platelet adhesion molecule expression by flow cytometry; format: cell-based, human; settings: 0.1-10 nM, 15 min, then PAF 100 nM 30 min
Description: FIG. 21: RvD2n-3 DPA and RvD5n-3 DPA reduce monocyte, neutrophil and platelet activation in healthy volunteer peripheral blood. […] Cell activation and leukocyte-platelet aggregates were assessed using flow cytometry. (A,B) Images depicting platelet monocyte (A) and (B) platelet-neutrophil aggregates. Results are representative of n=3 distinct experiments. (C,D) Cumulative neutrophil (C) CD11b and (D) CD62P expression. (E,F) Monocyte (E) CD11b and (F) CD62P expression. Results are mean of n=5 per condition and expressed as percentage change from PAF incubated cells. *p<0.05 compared to PAF using Wilcoxon Signed Rank Test. (G) Platelet rich plasma was incubated with vehicle (PBS) or RvD5n-3 DPA 0.1-10 nM (15 min; 37° C.) and PAF (100 nM; 30 min; 37° C.). Adhesion molecule expression evaluated using flow cytometry. Results are mean±s.e.m. n=5 healthy volunteers. * p, 0.05 compared to Vehicle group using Friedman's test followed by Dunn's multiple comparisons test.
Peripheral blood from healthy volunteers was collected in acidified-citrate-dextrose. Blood was centrifuged at 500×g for 20 min. PRP was collected and cells incubated with RvD5n-3 DPA or vehicle (0.01% EtOH+PBS) for 15 min at 37° C. Cells were then incubated with PAF (100 nM) or Vehicle (0.01% EtOH) for 30 min at 37° C. Cells were then washed with PBS and cellular activation was assessed using flow cytometry as detailed below.
In select experiments platelet adhesion molecule expression was assessed. Here platelets were incubated with fluorescently labelled mouse anti-human VioBlue-anti-CD41, PE-Cy5-anti-CD62P, PerCP/Cy5.5-anti-CD63 and FITC-ant-CD42b for 30 min at 4° C. Cells were then washed and fluorescence, staining evaluated using LSRFortessa cell analyser (BD Biosciences) and analysed using FlowJo software (Tree Star Inc., V10).

[1] = tested on: peripheral blood leukocytes and platelets from CVD patients; experiment: CVD patient whole blood incubated with RvD2n-3 DPA or RvD5n-3 DPA then PAF, flow cytometry; format: cell-based, human
Apo E^−/− mice [2] = experiment: Apo E−/− mice given RvD5n-3 DPA: aortic arch Oil red-O staining; format: in vivo; settings: 100 ng/mouse i.v., alternate days, 2 weeks; vs vehicle
Description: (§1) Mice (male and female) were fed a western diet for 6 weeks from 4 weeks of age and kept of a 12 h light dark cycle. At 8 weeks of age, mice were given RvD5n-3 DPA (100 ng/mouse; i.v.) or vehicle on alternate days for a 2-week period. Mice were culled, aortic arches were collected and stained using oil-red O as in Khambata R S et al. Anti-inflammatory actions of inorganic nitrate stabilize the atherosclerotic plaque. Proc Natt Acad Sci USA. 2017; 114(4):E550-E559, the contents of which are incorporated herein by reference. Staining intensity was determined using image processing software and expressed as relative units per mm^2. The descending aorta was collected, placed in ice-cold methanol and lipid mediators identified and quantified as described above.

Apo E^−/− mice [3] = experiment: Apo E−/− mice given RvD5n-3 DPA: lipid mediator profiling of descending aorta; format: in vivo, mouse
Description: Plasma was obtained from peripheral blood of healthy volunteers and patients following centrifugation at 1500×g for 10 min at room temperature. Descending aortas were weighed, placed in ice-cold methanol and homogenized using a glass dounce.
All samples for LC-MS-MS-based profiling were extracted using solid-phase extraction columns as described in Dalli et al. 2013 and Rathod et al. 2017, the contents of which are incorporated herein by reference.
Prior to sample extraction, deuterated internal standards, representing each region in the chromatographic analysis (500 pg each) were added to facilitate quantification in 4V of cold methanol.
Samples were kept at −20° C. for a minimum of 45 min to allow protein precipitation.
Supernatants were subjected to solid phase extraction, methyl formate fraction collected, brought to dryness and suspended in phase (methanol/water, 1:1, vol/vol) for injection on a Shimadzu LC-20AD HPLC and a Shimadzu SIL-20AC autoinjector, paired with a triple quadrupole mass spectrometer with or without a linear ion trap.
An Agilent Poroshell 120 EC-C18 column (100 mm×4.6 mm×2.7 μm) was kept at 50° C. and mediators eluted using a mobile phase consisting of methanol-water-acetic acid of 20:80:0.01 (vol/vol/vol) that was ramped to 50:50:0.01 (vol/vol/vol) over 0.5 min and then to 80:20:0.01 (vol/vol/vol) from 2 min to 11 min, maintained till 14.5 min and then rapidly ramped to 98:2:0.01 (vol/vol/vol) for the next 0.1 min. This was subsequently maintained at 98:2:0.01 (vol/vol/vol) for 5.4 min, and the flow rate was maintained at 0.5 ml/min. Mass spectrometer was operated using a multiple reaction monitoring method as in Walker M E et al. 13-Series resolvins mediate the leukocyte-platelet actions of atorvastatin and pravastatin in inflammatory arthritis. FASEB J. 2017 August; 31(8):3636-3648, the contents of which are incorporated herein by reference.
Each LM was identified using established criteria including matching retention time to synthetic and authentic materials and at least six diagnostic ions (Walker M E et al. 2017. ibid.)
Calibration curves were obtained for each using synthetic compound mixtures at 0.78, 1.56, 3.12, 6.25, 12.5, 25, 50, 100, and 200 pg that gave linear calibration curves with an r^2 values of 0.98-0.99.
as §1

[4] = 100 ng/mouse i.v., alternate days, 2 weeks, vs vehicle
[5] = Apo E−/− mice, western diet, RvD5n-3 DPA 100 ng/mouse i.v. alternate days 2 weeks, descending aorta, mean, n = 4
[6] = ApoE−/− mice, WD 6 weeks, 100 ng/mouse i.v. alternative days, descending aorta, mean ± s.e.m., n = 4
[7] = ApoE−/− mice, WD 6 weeks, 100 ng/mouse i.v. alternative days, descending aorta, n = 4

With `CC/C=C\C[C@H](O)/C=C/C=C\C/C=C\C=C\[C@@H](O)CCCCCC(=O)O` [RvD5n-3 DPA, 7,17-trihydroxy-8E,10,13,15E,19Z-docosapentaenoic acid] the “PAF mediated upregulation of CD41 expression on platelets” value (platelet rich plasma) was “dose dependent reduction”, the “PAF mediated upregulation of CD62P expression on platelets” value (platelet rich plasma) was “dose dependent reduction” and the “PAF mediated upregulation of CD63 expression on platelets” value (platelet rich plasma) was “dose dependent reduction”. For the same molecule, the “expression of CD62P on peripheral blood platelets” value [1] was “dose-dependently regulated”, the “expression of CD63 on peripheral blood platelets” value [1] was “dose-dependently regulated” and the “aortic lesions (Oil red-O staining)” value (Apo E^−/− mice [2]) was “significant reduction”. The “aortic 15-epi-LXA4” value (Apo E^−/− mice [3]; [4]) was “significant upregulation”, the “aortic MaR1” value (Apo E^−/− mice [3]; [4]) was “significant upregulation” and the aortic prostanoids (Apo E^−/− mice [3]; [4]) was “significant reductions”. The “reduction of aortic TxB2 concentrations” value (Apo E^−/− mice [3]; [4]) was ~35% and > 35%, the “PGD2 concentration in aortic tissue” value (Apo E^−/− mice [3]; [5]) was 15.0 pg/10 mg tissue and the “PGE2 concentration in aortic tissue” value (Apo E^−/− mice [3]; [5]) was 16.2 pg/10 mg tissue. For the same molecule, the “PGF2a concentration in aortic tissue” value (Apo E^−/− mice [3]; [5]) was 9.1 pg/10 mg tissue, the “TxB2 concentration in aortic tissue” value (Apo E^−/− mice [3]; Apo E−/− mice, western diet, RvD5n-3 DPA 100 ng/mouse i.v. alternate days 2 weeks, descending aorta, mean, n = 4, p < 0.05 vs Vehicle) was 30.7 pg/10 mg tissue and the “4,14-diHDHA in aorta” value (Apo E^−/− mice [3]; [6]) was 4.9 ± 2.0 pg/10 mg aorta. The “5S,12S-diHETE in aorta” value (Apo E^−/− mice [3]; [6]) was 0.6 ± 0.2 pg/10 mg aorta, the “5S,15S-diHETE in aorta” value (Apo E^−/− mice [3]; [6]) was 51.9 ± 15.3 pg/10 mg aorta and the “7S,14S-diHDHA in aorta” value (Apo E^−/− mice [3]; [6]) was 1.8 ± 0.3 pg/10 mg aorta. The “10S,17S-diHDHA in aorta” value (Apo E^−/− mice [3]; [6]) was 66.0 ± 35.4 pg/10 mg aorta, the 15-epi-LXA4 in aorta (Apo E^−/− mice [3]; [6]) was 9.6 ± 1.9 pg/10 mg aorta and the 15-epi-LXB4 in aorta (Apo E^−/− mice [3]; [6]) was 1.4 ± 0.5 pg/10 mg aorta. It also gave a 17R-PD1 in aorta (Apo E^−/− mice [3]; [6]) of 0.3 ± 0.2 pg/10 mg aorta, a 17R-RvD1 in aorta (Apo E^−/− mice [3]; [6]) of 1.6 ± 0.9 pg/10 mg aorta and a 17R-RvD3 in aorta (Apo E^−/− mice [3]; [6]) of 1.3 ± 0.3 pg/10 mg aorta. The 22-OH-PD1 in aorta (Apo E^−/− mice [3]; [6]) was 6.0 ± 1.0 pg/10 mg aorta, the LTB4 in aorta (Apo E^−/− mice [3]; [6]) was 1.7 ± 0.3 pg/10 mg aorta and the LXA4 in aorta (Apo E^−/− mice [3]; [6]) was 0.3 ± 0.0 pg/10 mg aorta. It also gave an LXB4 in aorta (Apo E^−/− mice [3]; [6]) of 0.6 ± 0.4 pg/10 mg aorta, a MaR1 in aorta (Apo E^−/− mice [3]; [6]) of 35.4 ± 22.7 pg/10 mg aorta and a PD1 in aorta (Apo E^−/− mice [3]; [6]) of 2.6 ± 0.7 pg/10 mg aorta. The “PD1n-3 DPA in aorta” value (Apo E^−/− mice [3]; [6]) was 0.0 ± 0.0 pg/10 mg aorta, the PGD2 in aorta (Apo E^−/− mice [3]; [6]) was 14.9 ± 3.5 pg/10 mg aorta and the PGE2 in aorta (Apo E^−/− mice [3]; [6]) was 20.5 ± 4.5 pg/10 mg aorta. For the same molecule, the PGF2α in aorta (Apo E^−/− mice [3]; [6]) was 10.0 ± 1.7 pg/10 mg aorta, the RvD1 in aorta (Apo E^−/− mice [3]; [6]) was 1.7 ± 0.9 pg/10 mg aorta and the “RvD1n-3 DPA in aorta” value (Apo E^−/− mice [3]; [6]) was 0.1 ± 0.1 pg/10 mg aorta. The RvD2 in aorta (Apo E^−/− mice [3]; [6]) was 0.4 ± 0.4 pg/10 mg aorta, the “RvD2n-3 DPA in aorta” value (Apo E^−/− mice [3]; [6]) was 0.1 ± 0.1 pg/10 mg aorta and the RvD3 in aorta (Apo E^−/− mice [3]; [6]) was 2.4 ± 0.6 pg/10 mg aorta. The RvD5 in aorta (Apo E^−/− mice [3]; [6]) was 0.4 ± 0.2 pg/10 mg aorta, the “RvD5n-3 DPA in aorta” value (Apo E^−/− mice [3]; [6]) was 0.1 ± 0.1 pg/10 mg aorta and the RvD6 in aorta (Apo E^−/− mice [3]; [6]) was 1.5 ± 1.1 pg/10 mg aorta. For the same molecule, the RvE2 in aorta (Apo E^−/− mice [3]; [6]) was 0.1 ± 0.1 pg/10 mg aorta, the RvE3 in aorta (Apo E^−/− mice [3]; [6]) was 0.7 ± 0.1 pg/10 mg aorta and the RvEl in aorta (Apo E^−/− mice [3]; [6]) was 1.8 ± 0.5 pg/10 mg aorta. For the same molecule, the TxB2 in aorta (Apo E^−/− mice [3]; [6]) was 34.5 ± 4.1 pg/10 mg aorta, the 20-OH-LTB4 in aorta (Apo E^−/− mice [3]; [7]) was “— (Below limits of detection)” and the “MaR1n-3 DPA in aorta” value (Apo E^−/− mice [3]; [7]) was “— (Below limits of detection)”. The RvD4 in aorta (Apo E^−/− mice [3]; [7]) was “— (Below limits of detection)”, the RvT1 in aorta (Apo E^−/− mice [3]; [7]) was “— (Below limits of detection)” and the RvT2 in aorta (Apo E^−/− mice [3]; [7]) was “— (Below limits of detection)”. The RvT3 in aorta (Apo E^−/− mice [3]; [7]) was “— (Below limits of detection)” and the RvT4 in aorta (Apo E^−/− mice [3]; [7]) was “— (Below limits of detection)”.
